# Where two headings read alike, the source gives them in different places.
# Assays:
# [1] = system: rats with CCI; set-up: method as in PMID 23489258; details: single doses (i.p.), rats with CCI ref 38; cited from earlier work
# [2] = system: rat model of neuropathic pain (CCI); test: Thermal hyperalgesia: paw withdrawal latency (PWL) in rats with CCI; format: in vivo
# Excerpt: (§1) The sciatic nerve was exposed unilaterally after skin incision at the mid-thigh level and blunt dissection of the biceps under deep anesthesia (isoflurane, 3%). Four chromic gut ligatures were tied loosely around the nerve 1 mm apart, and the overlying muscles and skin were closed in layers with 4–0 Ethilon sutures. A minor modification was introduced, consisting of loose ligatures, to minimize nerve damage and deafferentation. Rats with this slightly modified CCI procedure gradually develop typical signs of sensory hypersensitivity associated with neuropathic pain, such as guarding the affected hind paw and thermal hypersensitivity. […] For CCI sham surgery, the sciatic nerve was similarly exposed but not ligated.
# EEG recording was performed first for ~10 min during resting states (no stimulation). The rat was then untethered from the EEG leads and placed in the behavioral apparatus for 15 min acclimation, followed by 5 min PWL testing. Thermal sensitivity of the hindpaw was assessed by measuring the latency of the withdrawal reflex in response to a radiant heat source (Paw withdrawal stimulator, Department of Anesthesiology, University of California, SD). A radiant heat source (4.7 A) was applied to the plantar surface of the hind paw. Paw withdrawal latencies (PWL) in response to 4 thermal stimulations were averaged for each paw. Stimulations to each paw were separated by at least 2 minutes intervals.
# (§2) Values regarding theta power and PWL are reported as mean ± SEM and then converted to ratio relative to naive or CCI values for standardized representation of the data. One sample t-test was used for comparison between naïve and CCI, and paired t-test was used for comparison between CCI and after treatment in the same animals, respectively. Values regarding drug plasma concentration are reported as geomean (% of covariance) or range. Correlation analysis was used to compare EEG with PWL values. A P value < 0.05 was considered statistically significant and denoted by asterisk (*) in figures.
# [3] = Pharmacokinetics (PK) study: drug plasma concentration in rats by LC-MS/MS; format: in vivo, rat; details: for concentration at 30 min: geomean (% coefficient of variation), n = 3
# Method: Rats (n = 3 per group) were intraperitoneally treated either with 3 or 100 mg/kg of pregabalin, or orally either with 1 or 10 mg/kg of EMA401, or 80 mg/kg of minocycline. At 0.5, 1, and 2 hours after treatment, approximately 150 µL of blood was collected from the jugular vein using a heparinized syringe with a needle. Blood samples were then centrifuged at 1700 g at 4 °C for 10 minutes. Plasma samples were then separated and stored at −20 °C until analysis. Five or 10 μL of plasma samples were diluted with 300 μL of deproteinization solution containing internal standards (5 nM buspirone, 20 nM tolbutamide, 10 nM reserpine in acetonitorile/methanol = 9: 1) and shaken for 5 minutes at room temperature, and centrifuged at 1000 g for 15 minutes. Then, the supernatant was analyzed by LC-MS/MS (Xevo TQ-S Tandem Quadrupole Mass Spectrometry, Waters) for quantification of pregabalin. Data analysis were performed with MassLynx Mass Spectometry Software and TargetLynx Application manager (Waters).
# [4] = cited from earlier work
# [5] = system: rat model of neuropathic pain (CCI); test: EEG theta power over primary somatosensory cortex in awake rats with CCI; format: in vivo; details: for Longitudinal effects on theta power and PWL: single dose 10 mg/kg, n=4
# Method: These procedures were performed under anesthesia (isoflurane, 2–3.5%). The head was fixed in a stereotaxic apparatus, and skull was exposed after a small skin incision. A stainless steel screw electrode (0–80 ga 1/8 inch, impedance = 0.6 Ω; component Supply Company, Fort Meade, FL) was placed over intact skull (i.e. epicranially) corresponding to primary somatosensory cortex or S1 contralateral to nerve injury (Bregma −2, 2 mm lateral). Minimal craniotomies were used to place 3 stabilization screws (corresponding to Bregma +1.4, 2 mm bilaterally and Bregma −4.8 mm, midline). The EEG screw was threaded with a silver wire and attached to a female miniature pin connector (A&M Systems, Sequim, WA). All screws were anchored to the skull chronically using dental acrylic (Fig. 1B). Signal reference was provided by a silver wire permanently threaded to the skin at the back of the neck.
# as §1, with “deafferentation.” for “deafferentation. Rats with this slightly modified CCI procedure gradually develop typical signs of sensory hypersensitivity associated with neuropathic pain, such as guarding the affected hind paw and thermal hypersensitivity.”
# Pin connectors from EEG electrode was tethered to preamplifier headstage leading to a multichannel amplifier (iso-DAM8A; WPI Inc, Sarasota, FL). EEG waveforms were amplified (DAM80; World Precision Instruments, Sarasota, FL). […] Rats were allowed to move freely during EEG recording in Plexiglas chambers. After 15 minutes of acclimation, EEG recording was performed. Each EEG recording session was 3 to 5 minutes per animal. […] Only data during awake resting periods (defined as alertness but idle with no locomotor behavior) were further analyzed. Potentials generated due to vigorous myogenic activity (such as scratching) were excluded from analysis. These artifacts can be easily identified on the basis of monitoring the animal’s behavior, voltage amplitude, and spectral frequency typically >30 Hz, and they were further corroborated using an automated artifact detection algorithm recently developed in our laboratory (Supplemental Fig. 3)[59].
# Fast Fourier transform was used to convert EEG waveform from the time domain to the frequency domain. Power values were generated in 27 frequency bins between 3 and 30 Hz. Awake resting periods were selected and Fast Fourier transformed, then average PSD was calculated. Mean PSD theta was computed between 4 and 8 Hz (Fig. 1C). Each ‘period’ was a continuous interval between 7 and 20 seconds, and 3–5 periods were averaged to obtain one value for mean theta per condition.
# as §2
# [6] = system: pain patients; details: equivalent human dose High (rat 30 mg/kg i.p.); cited from earlier work
# [7] = cited from earlier work; for Plasma concentration in rat: mean (% coefficient of variation) ref 29; for Plasma concentration in rat (% covariance): mean ref Lau et al.
# [8] = 10 mg/kg p.o., single administration, d14 after CCI, 0.5 hr, n = 6
# [9] = 80 mg/kg p.o., single administration at d14 after CCI, n = 5
smiles,measurement,setting,value
COc1ccc2c(c1OCc1ccccc1)C[C@@H](C(=O)O)N(C(=O)C(c1ccccc1)c1ccccc1)C2 [EMA400],Anti-allodynic effects,[1],dose-dependent anti-allodynic effects
COc1ccc2c(c1OCc1ccccc1)C[C@@H](C(=O)O)N(C(=O)C(c1ccccc1)c1ccccc1)C2 [EMA401],PWL relative to CCI,"[2]; 10 mg/kg p.o. daily starting d7 after CCI, day 7",1.60 ± 0.19
same,PWL relative to CCI,"[2]; 10 mg/kg p.o. daily starting d7 after CCI, day 11",2.13 ± 0.28
same,PWL relative to CCI,"[2]; 10 mg/kg p.o. daily starting d7 after CCI, day 14",2.27 ± 0.30
same,PWL relative to CCI,[2]; [8],1.26 ± 0.11
same,Distribution,"[3]; rat, in vivo",peripherally restricted
same,Exposure after daily administration,"[3]; rat, in vivo, po",not cumulative
same,Corresponding plasma concentration in human: Cmax,"[4]; 200 mg/day, mean (% covariance) ref Rice et al.",Therapeutic dose Similar to Cmax of 200 mg/day: 1.01 (65) mg/mL*b [Rice et al.]
same,"Plasma concentration, clinical data",[4]; human ref 18,1.01 (65) μg/mL
same,Theta power relative to CCI,"[5]; 10 mg/kg p.o. daily starting d7 after CCI, day 7, n = 6",0.76 ± 0.07
same,Theta power relative to CCI,"[5]; 10 mg/kg p.o. daily starting d7 after CCI, day 11, n = 6",0.77 ± 0.08
same,Theta power relative to CCI,"[5]; 10 mg/kg p.o. daily starting d7 after CCI, day 14, n = 6",0.87 ± 0.12
same,Theta power relative to CCI,[5]; [8],0.71 ± 0.13
same,Longitudinal effects on theta power and PWL,"[5]; CCI d7, 30 min after administration",analgesic effects
same,Longitudinal effects on theta power and PWL,"[5]; CCI d7, 2 hours after administration",tendency for reversal
"CC(C)C[C@H](CN)CC(=O)O [Pregabalin, pregabalin]",PWL relative to CCI,"[2]; 3 mg/kg i.p., single dose, d14 after CCI, 0.5 h, mean ± SEM ratio",1.42 ± 0.10
same,PWL relative to CCI,"[2]; 10 mg/kg i.p., single dose, d14 after CCI, 0.5 h, mean ± SEM ratio",1.54 ± 0.08
same,PWL relative to CCI,"[2]; 30 mg/kg i.p., single dose, d14 after CCI, 0.5 h, mean ± SEM ratio",1.47 ± 0.14
same,Clinical efficacy (VAS),[6],Side effects
same,Linearity of plasma concentration at 30 min,"[3]; doses of 3 and 100 mg/kg i.p., compared with previous report (10 and 30 mg/kg)",good linearity
same,concentration at 30 min,"[3]; rat, in vivo, 3 mg/kg i.p.",3.29 µg/mL
same,concentration at 30 min,"[3]; rat, in vivo, 100 mg/kg i.p.",99.3 µg/mL
same,Plasma concentration in rat,"[7]; 10 mg/kg i.p., 30 min",11.3 (4.9) μg/mL
same,Plasma concentration in rat (% covariance),"[7]; 10 mg/kg, observation time 30 min",11.3 (4.9)*b mg/mL
same,Plasma concentration in rat,[7]; 30 mg/kg i.p.,33.0 (5.4) μg/mL
same,Plasma concentration in rat (% covariance),[7]; 30 mg/kg,33.0 (5.4)*b mg/mL
same,Cmax in humans,[4]; 150 mg/day ref 31,3.18 (21) μg/mL
same,Corresponding plasma concentration in human: Cmax,[4]; 150 mg/day ref Chew et al.,Sub-therapeutic dose Similar to Cmax of 150 mg/day: 3.18 (21) mg/mL [Chew et al.]
same,Cmax in humans,[4]; 300 mg/day ref 31,6.39 (20) μg/mL
same,Cmax in humans,[4]; 600 mg/day ref 31,11.4 (17) μg/mL
same,Corresponding plasma concentration in human: steady state level,"[4]; 600 mg/day, range ref Dworkin et al.",Supra-therapeutic dose Slightly higher than steady state level of 600 mg/day: 0.244–18.6 mg/mL*a [Dworkin et al.]
same,Steady state level in humans,"[4]; 600 mg/day, represented as range ref 33",0.244 to 18.6 µg/mL
same,Theta power relative to CCI,"[5]; 3 mg/kg i.p., single dose, d14 after CCI, 0.5 h, mean ± SEM ratio, n = 7",0.91 ± 0.11
same,Theta power relative to CCI,"[5]; 10 mg/kg i.p., single dose, d14 after CCI, 0.5 h, mean ± SEM ratio, n = 7",0.83 ± 0.12
same,EEG efficacy (θ power),"[5]; 30 mg/kg (i.p.), pain phase Late",Side effects
same,Theta power relative to CCI,"[5]; 30 mg/kg i.p., single dose, d14 after CCI, 0.5 h, mean ± SEM ratio, n = 7",1.24 ± 0.29
"CN(C)c1ccc(O)c2c1C[C@H]1C[C@H]3[C@H](N(C)C)C(O)=C(C(N)=O)C(=O)[C@@]3(O)C(O)=C1C2=O [Minocycline, minocycline]",PWL relative to CCI,"[2]; 80 mg/kg p.o. daily treatment starting d7 CCI, day 7",0.91 ± 0.05
same,PWL relative to CCI,"[2]; 80 mg/kg p.o. daily treatment starting d7 CCI, day 10",1.00 ± 0.08
same,PWL relative to CCI,"[2]; 80 mg/kg p.o. daily treatment starting d7 CCI, day 14",0.94 ± 0.04
same,PWL relative to CCI,[2]; [9],1.08 ± 0.10
same,Corresponding plasma concentration in human: clinical dose,"[4]; 200 mg/day, range ref Sumitani et al.",Therapeutic dose (inconclusive) Higher than clinical (200 mg/day) dose: 3.19–4.59 mg/mL*a [Sumitani et al.]
same,Theta power relative to CCI,"[5]; 80 mg/kg p.o. daily starting d7 CCI, day 11, n = 7",0.95 ± 0.11
same,Theta power relative to CCI,"[5]; 80 mg/kg p.o. daily starting d7 CCI, day 14, n = 5",1.37 ± 0.45
same,Theta power relative to CCI,"[5]; 80 mg/kg p.o., d7 after CCI (first of daily doses), n = 7",0.71 ± 0.06
same,Theta power relative to CCI,[5]; [9],0.96 ± 0.13
Cc1cc(Cn2cnc3c2CC(C(=O)O)N(C(=O)C(c2ccccc2)c2ccccc2)C3)ccc1N(C)C (stereo not shown) [EMA200],Anti-allodynic effects,[1],dose-dependent anti-allodynic effects

# Source: article PMC6219560, “An Electroencephalography Bioassay for Preclinical Testing of Analgesic Efficacy” (Scientific Reports, 2018)
